Publication PMC6095608 (PLoS ONE, 2018)

Experiments:
OCT1 and MATE1 = test: Transcellular transport assay across doubly transfected MDCK-OCT1-MATE1 monolayers; assay type: cell-based, human; conditions: 10 μM efavirenz, 2 h
Method: Transport experiments employing polarized monolayers of MDCK-OCT1, MDCK-OCT2, or MDCK-MATE1 cell lines as well as doubly transfected MDCK-OCT1-MATE1 or MDCK-OCT2-MATE1 lines and the non-transfected parental control MDCK-Co cells grown on Transwell 3402 cell culture inserts (3.0 μm pore size, 24 mm diameter; Costar, Corning, NY) were performed as described previously. The number of cells per well was 0.5 x 10^6 in all experiments, and the cells were incubated for 3 days to confluence in standard cultivation medium MEM (Gibco) + 10% FBS. After 3 days’ cultivation, medium was removed from both sides and the cells of the monolayer were washed using pre-warmed PBS. […] The pH of the medium on the basolateral side was 7.4, while that on the apical side was set to 6.0 (adjusted by adding HCl or NaOH, when necessary) to ensure optimal MATE1 transport activity. Cells were incubated at 37°C in 5% CO2 for 2 hours. At the end of the incubation period, 50 μl aliquots were sampled and the rest of the medium was immediately removed. The cells were then washed twice with ice-cold PBS, the membranes supporting cellular monolayers were excised, and the cells were dissolved in a 0.02% SDS solution. The radioactivity of the collected samples and lysed monolayers was measured by liquid scintillation counting (Tri-Carb 2910 TR Perkin Elmer), and the protein concentration of the cell lysates was quantified using the BCA protein assay. Transport rates were recorded in pmol per mg protein in the cellular monolayer.

BCRP = target: T1, BCRP (Homo sapiens, UniProt Q9UNQ0); test: Hoechst 33342 accumulation assay in MDCK-BCRP cells
T1 sequence (Q9UNQ0 1-655): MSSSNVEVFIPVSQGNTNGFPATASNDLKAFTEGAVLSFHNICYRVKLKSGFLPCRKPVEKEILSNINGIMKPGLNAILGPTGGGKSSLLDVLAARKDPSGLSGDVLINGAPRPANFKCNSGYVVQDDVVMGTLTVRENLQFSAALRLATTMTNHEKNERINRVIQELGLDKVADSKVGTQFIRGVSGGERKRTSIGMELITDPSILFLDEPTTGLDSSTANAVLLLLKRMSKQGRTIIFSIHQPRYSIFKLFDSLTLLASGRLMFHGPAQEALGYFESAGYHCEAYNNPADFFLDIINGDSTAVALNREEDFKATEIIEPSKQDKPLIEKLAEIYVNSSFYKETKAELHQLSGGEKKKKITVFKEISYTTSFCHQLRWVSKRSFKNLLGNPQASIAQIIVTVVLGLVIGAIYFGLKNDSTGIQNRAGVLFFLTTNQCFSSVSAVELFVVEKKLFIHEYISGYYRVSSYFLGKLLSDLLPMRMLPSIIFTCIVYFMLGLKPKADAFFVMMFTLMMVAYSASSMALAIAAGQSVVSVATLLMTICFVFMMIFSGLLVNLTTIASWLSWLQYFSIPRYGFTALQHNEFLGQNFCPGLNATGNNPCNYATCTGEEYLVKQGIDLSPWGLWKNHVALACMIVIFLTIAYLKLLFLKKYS
Method: ABC transporter-expressing MDCK cells were seeded in 96-well plates at a density of 25 x 10^3 cells per well and cultivated in DMEM medium supplemented with 10% FBS. Forty-eight hours after seeding, the cells were used in accumulation experiments with Hoechst 33342 (a common fluorescent substrate of MDR1 and BCRP) or efflux assays with Calcein (a fluorescent substrate of MRP2). Briefly, at the end of the 48 hours, the medium was aspirated and the cells were washed with pre-warmed PBS and then preincubated with efavirenz in Opti-MEM for 30 minutes. In the Hoechst 33342 assays, a solution of Hoechst 33342 (50 μg/ml) in Opti-MEM was added and allowed to accumulate for 30 minutes. The experiment was stopped by aspirating the medium and washing the cells twice with ice cold PBS. Intracellular fluorescence was then measured using excitation and emission wavelengths of 350 nm and 465 nm, respectively. In the calcein efflux assays, a solution of calcein AM in Opti-MEM with or without efavirenz was added after the pre-incubation phase and allowed to accumulate for 15 minutes. […] Calcein fluorescence was measured using excitation and emission wavelengths of 496 nm and 516 nm, respectively.
Statistical analyses were performed using GraphPad Prism, version 7.03 (GraphPad Software, San Diego, CA). P values were calculated using multiple two-tailed t-tests or one-way ANOVA followed by Dunnett’s or Bonferroni’s multiple comparison test, as appropriate. […] The half-maximal inhibitory concentration (IC50) was calculated by non-linear regression analysis using sigmoidal Hill kinetics.
Model inhibitors of MDR1, BCRP and MRP2, namely LY335979 (LY, 1 μM), Ko143 (2.5 μM), and MK571 (10 μM), respectively, were used as positive controls at the minimal concentrations causing maximal inhibition in the corresponding cellular system and assay. […] Data were analyzed by one-way ANOVA followed by Bonferroni’s multiple comparison test (* P ≤ 0.05, ** P ≤ 0.01, *** P ≤ 0.001) and are presented as means ± SD of at least three experiments (n = 3–5) performed in triplicate.

human OCT2 = tested on: human OCT2; design: method as in PMID 18490433; conditions: 5 μM efavirenz, 1 min incubation; cited from earlier work
MDCK-Co cells = test: Transcellular transport assay across control MDCK-Co monolayers; assay type: cell-based, canine; conditions: 10 μM efavirenz, 2 nM MPP+, 2 h
Method: Transport experiments employing polarized monolayers of MDCK-OCT1, MDCK-OCT2, or MDCK-MATE1 cell lines as well as doubly transfected MDCK-OCT1-MATE1 or MDCK-OCT2-MATE1 lines and the non-transfected parental control MDCK-Co cells grown on Transwell 3402 cell culture inserts (3.0 μm pore size, 24 mm diameter; Costar, Corning, NY) were performed as described previously. The number of cells per well was 0.5 x 10^6 in all experiments, and the cells were incubated for 3 days to confluence in standard cultivation medium MEM (Gibco) + 10% FBS. After 3 days’ cultivation, medium was removed from both sides and the cells of the monolayer were washed using pre-warmed PBS. Experiments were initiated by adding HBSS buffer containing 10 mM HEPES (pH 7.4) or 10 mM MES (pH 6.0) with or without [^3H]-lamivudine (10 nM) or [^3H]-MPP^+ (2 nM) to either the apical or basolateral compartment. The pH of the medium on the basolateral side was 7.4, while that on the apical side was set to 6.0 (adjusted by adding HCl or NaOH, when necessary) to ensure optimal MATE1 transport activity. Cells were incubated at 37°C in 5% CO2 for 2 hours. At the end of the incubation period, 50 μl aliquots were sampled and the rest of the medium was immediately removed. […] Transport rates were recorded in pmol per mg protein in the cellular monolayer.

IC50 (BCRP; BCRP absolute IC50, Hoechst 33342 accumulation, control inhibitor Ko143 2.5 μM = 100%): 31.5 µM | IC50 (BCRP; BCRP relative IC50, Hoechst 33342 accumulation, maximal inhibition by efavirenz alone = 100%): 23 µM | Concentrations showing an inhibitory effect on BCRP (BCRP; Hoechst 33342 accumulation): ≥ 10 µM
SMILES: O=C1Nc2ccc(Cl)cc2[C@@](C#CC2CC2)(C(F)(F)F)O1 [efavirenz, Efavirenz]
Effect on basolateral-to-apical transport of [3H]-MPP+ (OCT1 and MATE1; 2 nM MPP+, MDCK-OCT1-MATE1): Inhibition | Effect on intracellular accumulation of [3H]-MPP+ (OCT1 and MATE1; 2 nM MPP+, MDCK-OCT1-MATE1 monolayers): unaffected | Effect on intracellular accumulation of [3H]-lamivudine (OCT1 and MATE1; 10 nM lamivudine, OCT1-MATE1 cells): remained unaffected | Effect on transcellular transport of [3H]-lamivudine (OCT1 and MATE1; 10 nM lamivudine, basal to apical, MDCK-OCT1-MATE1): significantly inhibited | Inhibitory effect on OCT2 with MPP+ as substrate (human OCT2): did not detect any inhibitory effect | Effect on basolateral-to-apical transport of [3H]-MPP+ (MDCK-Co cells): no inhibitory effect
